# Results as given in paper PMC9785678, “Candidalysin Is the Hemolytic Factor of Candida albicans” (Toxins, 2022).
# How the values were obtained:
# red blood cells (RBCs) = assay: Hemolysis assay with synthetic peptides on purified RBCs; type: cell-based, human; details: 37 °C; for hemolysis by the P7 derivative alone: 2 µM
# Experimental: RBCs were purified from whole blood of healthy volunteers. Blood was collected in tubes containing EDTA-K3 as an anticoagulant (approximately 9 mL/tube). To separate RBCs from white blood cells (WBCs) and plasma, three washes were performed by centrifugation (2000× g for 10 min) and subsequent re-suspension to reach 9 mL. First, the RBCs were resuspended in Dulbecco′s Phosphate Buffered Saline (DPBS) + 2% heat inactivated fetal bovine serum, then in pure DPBS, and eventually in RPMI (for assays with live candida) or again DPBS (for assays with peptides). After each centrifugation step, care was taken to remove as many WBCs as possible from the central buffy layer. A hemocytometer (Auto Hematology Analyzer BC-5300 Vet (Mindray, Shenzhen, China)) was used to verify that the WBC count was negligible ([…]) and to determine the RBC concentration. This was then adjusted to 5 × 10^8 cells/mL, in the respective media or buffer.
# Peptides were purchased from two different suppliers, namely Proteogenix (Strasbourg, France) and Peptide Protein Research Ltd. (Southampton, UK). Stock solutions were prepared in pure water at a concentration of 1.4 mM, then aliquoted and stored at −20 °C. […] Working solutions were then prepared in the relative buffer at the final concentration indicated for each assay.
# To assess the hemolytic potential of C. albicans strains, RBCs and fungal cells were mixed in a 1:1 ratio (5 × 10^7 each, in a final volume of 600 µL) in a 2 mL plastic test tube (screw cap). Every condition was performed in duplicates (technical replicates) and with at least three different donors (biological replicates). Test tubes were then incubated horizontally at 50 rpms, 37 °C, for 24 h. To assess the hemolytic potential of peptides, 10^7 RBCs were incubated with the relevant peptide at the indicated final concentration in a total volume of 150 µL, for 1 h at 37 °C, in a 96-well PCR plate. After incubation, samples were centrifuged (2000× g for 3 min) and 100 µL of supernatant was transferred to a fresh 96-well plate to measure hemoglobin absorbance at 414 nm. Hemolysis was defined as the absorbance of the sample relative to the absorbance of the full lysis control sample (RBCs incubated with pure water), following subtraction of the absorbance of the vehicle control (RBCs incubated with media or buffer only).
# [1] = tested on: candidalysin-induced hemolysis of RBCs; assay: Protection of RBCs from candidalysin-induced lysis by purinergic receptor antagonist; type: cell-based, human; details: candidalysin 16 µM, increasing concentrations of PPADS, 1 h, 37 °C
# Experimental: Figure 5 The purinergic receptor antagonist pyridoxal-phosphate-6-azophenyl-2′,4′-disulfonic acid (PPADS) protects from candidalysin-induced hemolysis via a purinergic receptor-independent mechanism. (a) Purified RBCs were incubated with candidalysin (16 µM) and increasing concentrations of PPADS, for 1 h at 37 °C. Hemolysis was quantified by measuring the absorbance of sample’s supernatant at 414 nm, and plotted relative to the full lysis control sample (RBCs incubated with pure water and the same amount of PPADS), following subtraction of the relative vehicle control (containing the same amount of PPADS). […] Permeabilization was measured as kinetic changes in conductance of tethered lipid membranes. […]
# To assess the hemolytic potential of C. albicans strains, RBCs and fungal cells were mixed in a 1:1 ratio (5 × 10^7 each, in a final volume of 600 µL) in a 2 mL plastic test tube (screw cap). […] After incubation, samples were centrifuged (2000× g for 3 min) and 100 µL of supernatant was transferred to a fresh 96-well plate to measure hemoglobin absorbance at 414 nm. Hemolysis was defined as the absorbance of the sample relative to the absorbance of the full lysis control sample (RBCs incubated with pure water), following subtraction of the absorbance of the vehicle control (RBCs incubated with media or buffer only).
# [2] = Membrane permeabilization by candidalysin, tethered bilayer lipid membranes (conductance); details: membranes without receptors, candidalysin 5, 10, 20 µM, 37 °C
# Experimental: Figure 5 The purinergic receptor antagonist pyridoxal-phosphate-6-azophenyl-2′,4′-disulfonic acid (PPADS) protects from candidalysin-induced hemolysis via a purinergic receptor-independent mechanism. (a) Purified RBCs were incubated with candidalysin (16 µM) and increasing concentrations of PPADS, for 1 h at 37 °C. Hemolysis was quantified by measuring the absorbance of sample’s supernatant at 414 nm, and plotted relative to the full lysis control sample (RBCs incubated with pure water and the same amount of PPADS), following subtraction of the relative vehicle control (containing the same amount of PPADS). Each data point on the graph represents a different donor (average of 2 technical replicates). […] Permeabilization was measured as kinetic changes in conductance of tethered lipid membranes.
# Tethered bilayer lipid membranes with 10% tethering lipids and 90% spacer lipids (T10 slides) were formed using the solvent exchange technique according to the manufacturer’s instructions (SDx Tethered Membranes Pty Ltd., Sydney, Australia). […] After rinsing 3× with 100 µL buffer, the conductance and capacitance of the membranes were measured for 20 min before injection of different concentrations of PPADS to the final concentrations in the individual channels as shown. […] Signals were measured using the tethaPod (SDx Tethered Membranes Pty Ltd., Sydney, Australia).
# epithelial cells = details: cited from earlier work
# Text: Candidalysin is generated from the longer polyprotein Ece1, which is processed by the Golgi-located Kex2 protease into eight peptides with C-terminal lysine–arginine (KR) residues. It was subsequently shown that a second processing event occurs by another Golgi-located protease, Kex1 [5, 11] which produces mature candidalysin by removing the C-terminal arginine from P3 [5, 11]. Peptides deriving from a Kex2-only processing are secreted, albeit at lower levels than mature candidalysin [5, 11].
compound,measurement,setting,value
CC[C@H](C)[C@H](NC(=O)[C@H](CC(C)C)NC(=O)[C@H](CCC(N)=O)NC(=O)[C@@H]1CCCN1C(=O)[C@H](CC(C)C)NC(=O)[C@H](CCCNC(=N)N)NC(=O)[C@H](CCC(N)=O)NC(=O)[C@H](CC(C)C)NC(=O)[C@H](CC(C)C)NC(=O)[C@H](CCC(=O)O)NC(=O)[C@H](CC(=O)O)NC(=O)[C@H](CC(C)C)NC(=O)[C@H](Cc1ccccc1)NC(=O)[C@H](CC(=O)O)NC(=O)[C@H](CCC(=O)O)NC(=O)[C@H](CC(C)C)NC(=O)CNC(=O)[C@@H](N)CC(=O)O)C(=O)N[C@H](C(=O)N[C@@H](CCCNC(=N)N)C(=O)N[C@@H](CO)C(=O)N[C@@H](C)C(=O)N[C@@H](CCC(=O)O)C(=O)N[C@@H](CO)C(=O)N[C@@H](C)C(=O)N[C@@H](CC(C)C)C(=O)N[C@@H](CCCCN)C(=O)N[C@@H](CC(=O)O)C(=O)N[C@@H](CO)C(=O)N[C@@H](CCC(N)=O)C(=O)N1CCC[C@H]1C(=O)N[C@H](C(=O)N[C@@H](CCCCN)C(=O)O)C(C)C)[C@@H](C)O [P7K],hemolysis by the P7 derivative alone,red blood cells (RBCs); 1 h,no effect
CC[C@H](C)[C@H](NC(=O)[C@H](CC(C)C)NC(=O)[C@H](CCC(N)=O)NC(=O)[C@@H]1CCCN1C(=O)[C@H](CC(C)C)NC(=O)[C@H](CCCNC(=N)N)NC(=O)[C@H](CCC(N)=O)NC(=O)[C@H](CC(C)C)NC(=O)[C@H](CC(C)C)NC(=O)[C@H](CCC(=O)O)NC(=O)[C@H](CC(=O)O)NC(=O)[C@H](CC(C)C)NC(=O)[C@H](Cc1ccccc1)NC(=O)[C@H](CC(=O)O)NC(=O)[C@H](CCC(=O)O)NC(=O)[C@H](CC(C)C)NC(=O)CNC(=O)[C@@H](N)CC(=O)O)C(=O)N[C@H](C(=O)O)[C@@H](C)O [P7a],hemolysis by the P7 derivative alone,red blood cells (RBCs); 1 h,low-level cytolytic activity
"Cc1nc(N=Nc2ccc(S(=O)(=O)O)cc2S(=O)(=O)O)c(COP(=O)(O)O)c(C=O)c1O [PPADS, pyridoxal-phosphate-6-azophenyl-2′,4′-disulfonic acid]",effect on candidalysin-induced hemolysis,[1],reduced
same,effect on permeabilization of artificial membranes by candidalysin,[2],able to inhibit permeabilization
candidalysin,reduction of hemolytic potential in the presence of EDTA,"red blood cells (RBCs); 100 mM EDTA, peptide 9 µM (Proteogenix), 1 h",4.2 fold
same,hemolytic activity compared with P3,"red blood cells (RBCs); all tested concentrations (1–8 µM), time course",clearly less hemolytic than P3
same,effect of pH on lysis efficiency,"red blood cells (RBCs); pH 5 to 8, buffered HBSS, peptide 9 µM, 1 h",Only a minimal difference
same,effect of adding excess Mg2+ ions (MgCl2) to cells pre-treated with EDTA on cytotoxicity,"red blood cells (RBCs); peptide 9 µM, EDTA then MgCl2 up to 100 mM, 1 h",restored the cytotoxicity
same,peptide concentration at and above which almost full RBC lysis was observed at the earliest time point,"red blood cells (RBCs); time course, 5 min incubation, range 1–8 µM, mean of 4 donors",≥ 4 µM
same,cytolytic activity against epithelial cells,epithelial cells,have cytolytic activity
